Assay results as given in ChEMBL document CHEMBL3044556, “Managing weeds with drip-applied herbicides in tomato” (2008).

Assays:
Type in all cases: functional
Echinochloa colona [1] = assay: Pre-emergence herbicidal activity against Echinochloa colona in tomato field assessed as number of weeds at 1.14 kg/ha applied through drip lines/backpack-spray on week 3 to 4 before transplanting measured 12 weeks after treatment (reference value: 9 plants/m2)
Eleusine indica [2] = assay: Pre-emergence herbicidal activity against Eleusine indica in tomato field assessed as number of weeds at 1.14 kg/ha applied through drip lines/backpack-spray on week 3 to 4 before transplanting measured 12 weeks after treatment (reference value: 9 plants/m2)
Eleusine indica [3] = assay: Pre-emergence herbicidal activity against Eleusine indica in tomato field assessed as increase in extra-large fruit weight at 1.14 kg/ha applied through drip lines/backpack-spray on week 3 to 4 before transplanting relative to untreated control
Portulaca oleracea [4] = assay: Pre-emergence herbicidal activity against Portulaca oleracea in tomato field assessed as number of weeds at 1.14 kg/ha applied through drip lines/backpack-spray on week 3 to 4 before transplanting measured 12 weeks after treatment (reference value: 9 plants/m2)
Boerhavia erecta [5] = assay: Pre-emergence herbicidal activity against Boerhavia erecta in tomato field assessed as number of weeds at 1.14 kg/ha applied through drip lines/backpack-spray on week 3 to 4 before transplanting measured 12 weeks after treatment (reference value: 9 plants/m2)
Amaranthus dubius [6] = assay: Pre-emergence herbicidal activity against Amaranthus dubius in tomato field assessed as number of weeds at 1.14 kg/ha applied through drip lines/backpack-spray on week 3 to 4 before transplanting measured 12 weeks after treatment (reference value: 9 plants/m2)
Amaranthus dubius [7] = assay: Pre-emergence herbicidal activity against Amaranthus dubius in tomato field assessed as number of weeds at 1.14 kg/ha applied through drip lines/backpack-spray on week 3 to 4 before transplanting measured 7 weeks after treatment (reference value: 9 plants/m2)
Trianthema [8] = assay: Pre-emergence herbicidal activity against Trianthema spp. in tomato field assessed as number of weeds at 1.14 kg/ha applied through drip lines/backpack-spray on week 3 to 4 before transplanting measured 12 weeks after treatment (reference value: 9 plants/m2)
Eleusine indica [9] = assay: Pre-emergence herbicidal activity against Eleusine indica in tomato field assessed as number of weeds at 1.14 kg/ha applied through drip lines/backpack-spray on week 3 to 4 before transplanting measured 7 weeks after treatment (reference value: 9 plants/m2)
Cyperus [10] = assay: Pre-emergence herbicidal activity against Cyperus in tomato field assessed as number of weeds at 1.14 kg/ha applied through drip lines/backpack-spray on week 3 to 4 before transplanting measured 12 weeks after treatment (reference value: 5 plants/m2)
Eleusine indica [11] = assay: Pre-emergence herbicidal activity against Eleusine indica in tomato field assessed as increase in total marketable weight at 1.14 kg/ha applied through drip lines/backpack-spray on week 3 to 4 before transplanting relative to untreated control; conditions: pooled result: one value given for 8 cell lines, strains, targets or settings
Digitaria [12] = assay: Pre-emergence herbicidal activity against Digitaria spp. in tomato field assessed as number of weeds at 1.14 kg/ha applied through drip lines/backpack-spray on week 3 to 4 before transplanting measured 12 weeks after treatment (reference value: 9 plants/m2)
Poaceae [13] = assay: Pre-emergence herbicidal activity against Poaceae (grass family) in tomato field assessed as number of weeds at 1.14 kg/ha applied through drip lines/backpack-spray on week 3 to 4 before transplanting measured 12 weeks after treatment (reference value: 8 plants/m2)
Echinochloa colona [14] = assay: Pre-emergence herbicidal activity against Echinochloa colona in tomato field assessed as number of weeds at 1.14 kg/ha applied through drip lines/backpack-spray on week 3 to 4 before transplanting measured 7 weeks after treatment (reference value: 9 plants/m2)
Corynandra viscosa [15] = assay: Pre-emergence herbicidal activity against Cleome viscosa in tomato field assessed as number of weeds at 1.14 kg/ha applied through drip lines/backpack-spray on week 3 to 4 before transplanting measured 12 weeks after treatment (reference value: 9 plants/m2)
Digitaria [16] = assay: Pre-emergence herbicidal activity against Digitaria spp. in tomato field assessed as number of weeds at 1.14 kg/ha applied through drip lines/backpack-spray on week 3 to 4 before transplanting measured 7 weeks after treatment (reference value: 9 plants/m2)
Cyperus [17] = assay: Pre-emergence herbicidal activity against Cyperus in tomato field assessed as number of weeds at 1.14 kg/ha applied through drip lines/backpack-spray on week 3 to 4 before transplanting measured 7 weeks after treatment (reference value: 3 plants/m2)
Amaranthus dubius [18] = assay: Pre-emergence herbicidal activity against Amaranthus dubius in tomato field assessed as increase in extra-large fruit weight at 1.14 kg/ha applied through drip lines/backpack-spray on week 3 to 4 before transplanting relative to untreated control
Corynandra viscosa [19] = assay: Pre-emergence herbicidal activity against Cleome viscosa in tomato field assessed as increase in extra-large fruit weight at 1.14 kg/ha applied through drip lines/backpack-spray on week 3 to 4 before transplanting relative to untreated control
Eleusine indica [20] = assay: Pre-emergence herbicidal activity against Eleusine indica in tomato field assessed as total number of fruits at 1.14 kg/ha applied through drip lines/backpack-spray on week 3 to 4 before transplanting (reference value: 49.5 x 10 '3 ha); conditions: pooled result: one value given for 8 cell lines, strains, targets or settings
Portulaca oleracea [21] = assay: Pre-emergence herbicidal activity against Portulaca oleracea in tomato field assessed as number of weeds at 1.14 kg/ha applied through drip lines/backpack-spray on week 3 to 4 before transplanting measured 7 weeks after treatment (reference value: 9 plants/m2)
Poaceae [22] = assay: Pre-emergence herbicidal activity against Poaceae (grass family) in tomato field assessed as number of weeds at 1.14 kg/ha applied through drip lines/backpack-spray on week 3 to 4 before transplanting measured 7 weeks after treatment (reference value: 6 plants/m2)
Boerhavia erecta [23] = assay: Pre-emergence herbicidal activity against Boerhavia erecta in tomato field assessed as increase in extra-large fruit weight at 1.14 kg/ha applied through drip lines/backpack-spray on week 3 to 4 before transplanting relative to untreated control
Portulaca oleracea [24] = assay: Pre-emergence herbicidal activity against Portulaca oleracea in tomato field assessed as increase in extra-large fruit weight at 1.14 kg/ha applied through drip lines/backpack-spray on week 3 to 4 before transplanting relative to untreated control
Trianthema [25] = assay: Pre-emergence herbicidal activity against Trianthema spp. in tomato field assessed as number of extra-large fruits at 1.14 kg/ha applied through drip lines/backpack-spray on week 3 to 4 before transplanting (reference value: 21.3 x 10 '3 ha); conditions: pooled result: one value given for 8 cell lines, strains, targets or settings
Corynandra viscosa [26] = assay: Pre-emergence herbicidal activity against Cleome viscosa in tomato field assessed as number of weeds at 1.14 kg/ha applied through drip lines/backpack-spray on week 3 to 4 before transplanting measured 7 weeks after treatment (reference value: 9 plants/m2)
Echinochloa colona [27] = assay: Pre-emergence herbicidal activity against Echinochloa colona in tomato field assessed as increase in extra-large fruit weight at 1.14 kg/ha applied through drip lines/backpack-spray on week 3 to 4 before transplanting relative to untreated control
Trianthema [28] = assay: Pre-emergence herbicidal activity against Trianthema spp. in tomato field assessed as increase in extra-large fruit weight at 1.14 kg/ha applied through drip lines/backpack-spray on week 3 to 4 before transplanting relative to untreated control
Boerhavia erecta [29] = assay: Pre-emergence herbicidal activity against Boerhavia erecta in tomato field assessed as number of weeds at 1.14 kg/ha applied through drip lines/backpack-spray on week 3 to 4 before transplanting measured 7 weeks after treatment (reference value: 9 plants/m2)
Trianthema [30] = assay: Pre-emergence herbicidal activity against Trianthema spp. in tomato field assessed as number of weeds at 1.14 kg/ha applied through drip lines/backpack-spray on week 3 to 4 before transplanting measured 7 weeks after treatment (reference value: 9 plants/m2)
Digitaria [31] = assay: Pre-emergence herbicidal activity against Digitaria spp. in tomato field assessed as increase in extra-large fruit weight at 1.14 kg/ha applied through drip lines/backpack-spray on week 3 to 4 before transplanting relative to untreated control

CCc1cccc(C)c1N(C(=O)CCl)[C@@H](C)COC [S-METOLACHLOR]
Activity (Echinochloa colona [1]): 2 /m2
Activity (Eleusine indica [2]): 2 /m2
Activity (Eleusine indica [3]): 75%
Activity (Portulaca oleracea [4]): 2 /m2
Activity (Boerhavia erecta [5]): 2 /m2
Activity (Amaranthus dubius [6]): 2 /m2
Activity (Amaranthus dubius [7]): 3 /m2
Activity (Trianthema [8]): 2 /m2
Activity (Eleusine indica [9]): 3 /m2
Activity (Cyperus [10]): 9 /m2
Activity (Eleusine indica [11]): 57%
Activity (Digitaria [12]): 2 /m2
Activity (Poaceae [13]): 3 /m2
Activity (Echinochloa colona [14]): 3 /m2
Activity (Corynandra viscosa [15]): 2 /m2
Activity (Digitaria [16]): 3 /m2
Activity (Cyperus [17]): 2 /m2
Activity (Amaranthus dubius [18]): 75%
Activity (Corynandra viscosa [19]): 75%
fruit count (Eleusine indica [20]): 70.8 10^3 fruits/ha
Activity (Portulaca oleracea [21]): 3 /m2
Activity (Poaceae [22]): 0 /m2
Activity (Boerhavia erecta [23]): 75%
Activity (Portulaca oleracea [24]): 75%
Activity (Trianthema [25]): 35 10^3 fruits/ha
Activity (Corynandra viscosa [26]): 3 /m2
Activity (Echinochloa colona [27]): 75%
Activity (Trianthema [28]): 75%
Activity (Boerhavia erecta [29]): 3 /m2
Activity (Trianthema [30]): 3 /m2
Activity (Digitaria [31]): 75%
